Where two headings read alike, the source gives them in different places.
How the values were obtained:
[1] = Minimum plasma concentrations of FLO during multiple oral administrations; format: in vivo; details: European seabass (Dicentrarchus labrax), 10 mg/kg/day, multiple oral 10 mg/kg per day for seven consecutive days, 24°C, read-out: Minimum plasma concentrations at the 24 hr sampling intervals
Procedure: The extraction step was repeated twice.
The flow rate was 1.0 ml/min.
Results are presented as means ± SD (standard deviation of the mean). […] The SPSS version 25.0 (International Business Machines Corporation, Armonk, NY, USA) was used for the statistical analysis.

[2] = cited from earlier work; for Primary route of excretion of FLO and its metabolites: single oral dose 10 mg/kg fish, ref Feng et al. (2008)
[3] = parameters: method as in Kosoff et al. (2009); details: 0‰, MO, 10 × 10d mg/kg fish, 49–52 g, 20–25 °C; ref Kosoff et al. (2009); cited from earlier work
[4] = 0‰, cited from earlier work
[5] = parameters: method as in Wrzesinski et al. (2006); details: 0‰, MO, 10 × 12d mg/kg fish, 916 g, 18–20 °C; ref Wrzesinski et al. (2006); cited from earlier work
[6] = parameters: method as in Park et al. (2006); details: 0‰, SO, 20 mg/kg fish, 280 g, 24 °C; ref Park et al. (2006); cited from earlier work
[7] = parameters: method as in Xie et al. (2013); details: 0‰, SO‐FA, 20 mg/kg fish, 71 g, 25 °C; ref Xie et al. (2013); cited from earlier work
[8] = parameters: method as in Yanong et al. (2005); details: 0‰, SO, 50 mg/kg fish, 144 g, 23–25 °C; ref Yanong et al. (2005); cited from earlier work
[9] = parameters: method as in Yanong et al. (2005); details: 0‰, SO, 50 mg/kg fish, 19 g, 23–25 °C; ref Yanong et al. (2005); cited from earlier work
[10] = 0‰, cited from earlier work; for WT: MO, 13 °C
[11] = cited from earlier work
[12] = parameters: method as in de Ocenda et al. (2017); details: 35‰, SO‐FA, 100 mg/kg fish, 101 g, 16 °C; ref de Ocenda et al. (2017); cited from earlier work
[13] = parameters: method as in Lim et al. (2010); details: ref Lim et al. (2010), cited from earlier work
[14] = parameters: method as in Chang et al. (2019); details: 31‰, SO‐FA, 30 mg/kg fish, 615 g, ref Chang et al. (2019), cited from earlier work
[15] = parameters: method as in Kosoff et al. (2009); details: 26–30‰, MO, 10 × 10d mg/kg fish, 384–426 g, 20–25 °C; ref Kosoff et al. (2009); cited from earlier work
[16] = 33‰, SO‐FA, cited from earlier work
[17] = parameters: method as in Table 4; details: after dietary delivery, different environmental conditions; ref Table 4; cited from earlier work
[18] = 0‰, SO‐FA, 10 mg/kg fish, 98 g, 22 °C, ref Feng and Jia (2009)
[19] = MO‐FA, 10 × 5d mg/kg fish, 330 g, 10 °C, ref Yang et al. (2020)
[20] = MO‐FA, 10 × 5d mg/kg fish, 330 g, 25 °C, ref Yang et al. (2020)
[21] = SO‐FA, 10 mg/kg fish, 260 g, 10 °C, ref Yang et al. (2019)
[22] = SO‐FA, 10 mg/kg fish, 260 g, 25 °C, ref Yang et al. (2019)
[23] = SO‐FA, 40 mg/kg fish, 260 g, 25 °C, ref Zhao et al. (2011)
[24] = SO, 10 mg/kg fish, 140 g, 14–15 °C, ref Pourmolaie et al. (2015)
[25] = 30‰, SO‐FA, 10 mg/kg fish, 194 g, 11 °C, ref Martinsen et al. (1993)
[26] = 33‰, MO, 20 × 3d mg/kg fish, 380 g, 19 °C
[27] = 24 mg/kg fish, 125 g, 23 °C, ref Feng et al. (2016)
[28] = 5–10 mg/kg fish, 103–301 g, 29 °C, ref Feng et al. (2018)

CS(=O)(=O)c1ccc([C@@H](O)[C@@H](CF)NC(=O)C(Cl)Cl)cc1 [FLO, florfenicol]
concentration at 24 hr [1]: 220 to 550 ng/mL
C max [2, 18]: 4500 ng/mL
T max [2, 18]: 12 h
t 1/2b [2, 18]: 10.0 h
Primary route of excretion of FLO and its metabolites ([2]; freshwater hybrid tilapia): the bile duct
Primary route of excretion of FLO and its metabolites ([2]; seawater tilapia): mostly the gills
C max [3]: 9200 to 15100 ng/mL
WT [3]: 232 to 302 h
C max [4, 19]: 4000 ng/mL
t 1/2b [4, 19]: 19.9 h
C max [4, 20]: 1700 ng/mL
t 1/2b [4, 20]: 12.9 h
C max [4, 21]: 2400 ng/mL
T max [4, 21]: 2.8 h
t 1/2b [4, 21]: 22.9 h
C max [4, 22]: 3500 ng/mL
T max [4, 22]: 3.7 h
t 1/2b [4, 22]: 9.6 h
C max [4, 23]: 29300 ng/mL
T max [4, 23]: 1.6 h
t 1/2b [4, 23]: 2.2 h
WT [5]: 96 h
C max [6]: 9600 ng/mL
T max [6]: 8 h
C max [7]: 8400 ng/mL
T max [7]: 5 h
t 1/2b [7]: 13.5 h
C max [8]: 12300 ng/mL
T max [8]: 3 h
C max [9]: 2600 ng/mL
T max [9]: 5 h
WT ([10]; 10 × 10d mg/kg fish, 220 g, ref Di Salvo et al. (2013)): 108 h
WT ([10]; 15–20 × 10d mg/kg fish, 126–617 g, ref Meinertz et al. (2014)): 360 h
C max [10, 24]: 6100 ng/mL
T max [10, 24]: 9 h
C max [11, 25]: 4000 ng/mL
T max [11, 25]: 10.3 h
C max ([11]; 35‰, MO, 10 × 10d mg/kg fish, 497 g, 10 °C, ref Horsberg et al. (1996)): 8560 ng/mL
C max ([11]; 35‰, SO‐FA, 10 mg/kg fish, 460 g, 10 °C, ref Horsberg et al. (1996)): 9100 ng/mL
C max [12]: 55400 ng/mL
T max [12]: 12 h
C max [13, 26]: 12200 ng/mL
WT [13, 26]: 189 h
Tissue distribution ([13]; multiple oral 20 mg kg^−1 day^−1 for three consecutive days): higher tissue concentrations of FLO in gills than in the other tested tissue samples
C max ([14]; 15 °C): 9100 ng/mL
t 1/2b ([14]; 15 °C): 14.3 h
T max ([14]; 15–20 °C): 12 h
C max ([14]; 20 °C): 12200 ng/mL
t 1/2b ([14]; 20 °C): 9.7 h
C max [15]: 1800 to 3500 ng/mL
WT [15]: 17 to 62 h
C max [16, 27]: 28000 ng/mL
t 1/2b [16, 27]: 11.6 h
C max [16, 28]: 6000 to 13000 ng/mL
t 1/2b [16, 28]: 8.5 to 9.3 h
Maximum plasma concentration in other farmed fish species [17]: 1.8 to 55 µg/mL

From article PMC8136953 (Veterinary Medicine and Science, 2020)
